The results in this text go back to PubChem BioAssay (NCI).

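Five compound concentrations were applied to cells in 96-well plates for 48 hours; endpoints were derived by simple linear interpolation of the resulting dose-response curve. GI50 = concentration required for 50% inhibition of growth. TGI: total growth inhibition.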 A value given as a limit tells only on which side of the number the result lay.

Some test systems named below: NCI-H23 lung; UO-31 renal; NCI-H522 lung; K-562 leukemia; UACC-257 melanoma; NCI-H226 lung; CAKI-1 renal; OVCAR-3 ovarian; TK-10 renal; LOX IMVI melanoma; SK-MEL-28 melanoma; SN12C renal; RXF 393 renal.
Holding throughout (test): growth of human tumour cells (NCI), 48 h

Take `Clc1ccc(CCN[C@H]2CCCC[C@H]2N2CCCC2)cc1Cl`: the TGI with NCI-H23 lung was 58.8 µM; in the assay with UO-31 renal, 31.2 µM; in the assay with NCI-H522 lung, 32.9 µM; with K-562 leukemia it was greater than 100 µM; in the assay on UACC-257 melanoma it was 28.5 µM; in the assay on NCI-H226 lung, 48.7 µM. Also, the TGI was greater than 100 µM in the assay with CAKI-1 renal; 65.2 µM in the assay with OVCAR-3 ovarian; 22.9 µM with TK-10 renal; 32.4 µM in the assay on LOX IMVI melanoma; 86.2 µM in the assay with SK-MEL-28 melanoma; 54.3 µM with SN12C renal.
Take `Cc1ccc2c(=O)cc(-c3ccc4ccccc4c3)[nH]c2n1`: the TGI in the assay with NCI-H23 lung is 28.7 µM; in the assay on UO-31 renal it was greater than 100 µM; in the assay with NCI-H522 lung, 20.5 µM; with K-562 leukemia, 13 µM; with UACC-257 melanoma, greater than 100 µM; in the assay on NCI-H226 lung it was 98.4 µM. Moreover, the TGI was greater than 100 µM in the assay on CAKI-1 renal; greater than 100 µM with OVCAR-3 ovarian; greater than 100 µM in the assay on TK-10 renal; 39.6 µM with LOX IMVI melanoma; greater than 100 µM with SK-MEL-28 melanoma; greater than 100 µM with SN12C renal. Moreover, the GI50 in the assay with CAKI-1 renal was 5.41 µM; in the assay on OVCAR-3 ovarian it was 3.59 µM.
Regarding `O=[N+]([O-])c1ccc(-n2nc3ccc4c(no[n+]4[O-])c3n2)cc1`, the TGI in the assay on NCI-H23 lung, with UO-31 renal, in the assay with NCI-H522 lung, in the assay with K-562 leukemia, in the assay with UACC-257 melanoma and in the assay on NCI-H226 lung was greater than 100 µM throughout. For the same compound, the TGI in the assay on CAKI-1 renal, with OVCAR-3 ovarian, with TK-10 renal, with LOX IMVI melanoma, in the assay on SK-MEL-28 melanoma and in the assay with SN12C renal was greater than 100 µM each time.
For `O=C(N/N=C/c1cc(Br)cc(Br)c1[O-])c1ccccc1O.O=C(N/N=C/c1cc(Br)cc(Br)c1[O-])c1ccccc1O.[Zn+2]`, the TGI was 3.17 µM with NCI-H23 lung; 10.6 µM with UO-31 renal; 1.47 µM in the assay with NCI-H522 lung; 10.6 µM in the assay on UACC-257 melanoma; 3.19 µM in the assay with NCI-H226 lung; 7.29 µM in the assay on CAKI-1 renal. Besides, the TGI came to 11.9 µM with RXF 393 renal; 0.742 µM with OVCAR-3 ovarian; 15 µM in the assay with TK-10 renal; 13.7 µM with LOX IMVI melanoma; 11.5 µM with SK-MEL-28 melanoma.
On to `CCCCc1ccc(Nc2nc(OC)c3ncn(C4CC(O)C(CO)O4)c3n2)cc1` (stereo not drawn), for which the TGI in the assay with NCI-H23 lung was 35.3 µM; in the assay with UO-31 renal, 35.7 µM; in the assay on NCI-H522 lung, 3.83 µM; in the assay with K-562 leukemia it was greater than 100 µM; with UACC-257 melanoma, 34.6 µM; in the assay on NCI-H226 lung, 44.5 µM. Also, the TGI with CAKI-1 renal came out at 3.49 µM; in the assay on RXF 393 renal, 31.7 µM; in the assay with OVCAR-3 ovarian, 54.3 µM; in the assay on TK-10 renal, 50.1 µM; in the assay on LOX IMVI melanoma it was 31.4 µM; in the assay with SN12C renal, 26.5 µM.
Regarding `CC(=O)OCC1OC(n2c3c(c(-c4ccc(Cl)cc4)c(C#N)c2=S)CCCC3)C(OC(C)=O)C(OC(C)=O)C1OC(C)=O` (stereo not drawn), the TGI in the assay on NCI-H23 lung, in the assay with UO-31 renal, in the assay on NCI-H522 lung, in the assay on K-562 leukemia, in the assay with UACC-257 melanoma and in the assay on NCI-H226 lung was greater than 100 µM in each case. The TGI was 84.4 µM in the assay on RXF 393 renal; greater than 100 µM in the assay on OVCAR-3 ovarian; greater than 100 µM with TK-10 renal; greater than 100 µM in the assay on LOX IMVI melanoma; 94.6 µM in the assay with SK-MEL-28 melanoma; greater than 100 µM in the assay on SN12C renal.
Regarding `CCC(C)[C@@H](Nc1c(O)c2c(c(O)c1Cl)C(=O)C=CC2=O)C(=O)OC` (stereo partly drawn), the TGI was 5.7 µM in the assay on NCI-H23 lung; 4.92 µM with NCI-H522 lung; greater than 10 µM with K-562 leukemia; 6.59 µM in the assay on UACC-257 melanoma; greater than 10 µM with NCI-H226 lung; greater than 10 µM in the assay with CAKI-1 renal. Moreover, the TGI in the assay with OVCAR-3 ovarian was 9.1 µM; in the assay on TK-10 renal it was greater than 10 µM; in the assay with LOX IMVI melanoma, greater than 10 µM; with SN12C renal, greater than 10 µM.
Take `COC(=O)CCNC(=O)OCc1ccccc1`: the TGI in the assay on NCI-H23 lung, in the assay on UO-31 renal, in the assay on NCI-H522 lung, in the assay on K-562 leukemia, in the assay with UACC-257 melanoma and in the assay on NCI-H226 lung was greater than 100 µM each time. For the same compound, the TGI in the assay with CAKI-1 renal, in the assay with OVCAR-3 ovarian, in the assay on TK-10 renal, in the assay with LOX IMVI melanoma, in the assay with SK-MEL-28 melanoma and with SN12C renal was greater than 100 µM in each case.
In the case of `S=c1ncc2c([nH]1)C1c3ccccc3C2c2ccccc21`, the TGI in the assay on NCI-H23 lung, in the assay on UO-31 renal, in the assay on NCI-H522 lung, with K-562 leukemia, in the assay on NCI-H226 lung and with RXF 393 renal was greater than 100 µM in each case. Moreover, the TGI in the assay on OVCAR-3 ovarian, in the assay on TK-10 renal, in the assay on LOX IMVI melanoma, in the assay on SK-MEL-28 melanoma and in the assay with SN12C renal was greater than 100 µM each time.
For the compound `C=CC1CN(C(=O)OCC)N(C(=O)OCC)C1CCc1ccccc1` (stereo not drawn), the TGI in the assay on NCI-H23 lung, with UO-31 renal, in the assay on NCI-H522 lung, with K-562 leukemia, with UACC-257 melanoma and in the assay on NCI-H226 lung was greater than 100 µM each time. In addition, the TGI in the assay with CAKI-1 renal, in the assay with TK-10 renal, in the assay with LOX IMVI melanoma, with SK-MEL-28 melanoma and in the assay with SN12C renal was greater than 100 µM throughout.
`CN(C)N1C(=O)S/C(=C\c2ccc([N+](=O)[O-])cc2)C1=O`: the TGI with NCI-H23 lung, in the assay with NCI-H522 lung, in the assay with UACC-257 melanoma, in the assay with NCI-H226 lung, in the assay on CAKI-1 renal and with RXF 393 renal was greater than 100 µM each time. For the same compound, the TGI with OVCAR-3 ovarian, in the assay with TK-10 renal, in the assay on LOX IMVI melanoma, with SK-MEL-28 melanoma and in the assay with SN12C renal was greater than 100 µM throughout.
